Test results reported in US3947578A, “Omega-[4-(3"-indolyl)-piperidino]-alkyl-arylketones as nevroleptics” (Roussel Uclaf, priority 1972, dated 1976).
Structures can show the parent of a compound that is named as a salt. Where two headings read alike, the source gives them in different places.

What was measured:
acute toxicity (DL50) = conditions: mouse, in vivo, ip; I.P.; mice; mortality recorded 48 hours after administration
Method: The different products were tested for the dose which would kill 50% of mice when administered intraperitoneally (DL50).

mouse [1] = assay: chimney test (neuroleptic activity); assay type: in vivo; conditions: ip, 25 min, I.P., 25 minutes after intraperitoneal administration, read-out: DE50 Chimney Test
Method: (§1) b. The chimney test which consists of placing a mouse in the extreme end of a glass tube 30 cm long and with a diameter adapted to the size of the animal. This tube is straightened vertically in a rapid motion and the animal with its head down mounts normally the length of the tube in less than 30 seconds. The test was effected 25 minutes after intraperitoneal administration of the test compounds to determine the DE50 dose which is the dose at which 50% of the animals effected a mounting in less than 30 seconds.

mouse [2] = assay: traction test (neuroleptic activity); assay type: in vivo; conditions: ip, 25 min, I.P., 25 minutes after intraperitoneal administration, read-out: DE50 Traction Test
Method: a. The traction test which consists of suspending a mouse by his front paws from a metal wire stretched horizontally. […] The test was run 25 minutes after intraperitoneal administration of the test product to determine the DE50 dose at which 50% of the animals effected recovering in less than 5 seconds.

dogs = assay: anti-emetic activity test vis-a-vis apomorphine hydrochloride; assay type: in vivo, dog; conditions: Canis lupus familiaris, ip, read-out: DE50 Test of Anti-emetic Activity
Method: (§2) The neuroleptic activity of the compounds of Examples 1 to 8 were determined in the following 4 tests and the results are reported in Table I:
(§3) d. The anti-emetic activity test which is determined on dogs vis-a-vis a subcutaneous injection of 0.1 mg/kg of apomorphine hydrochloride to determine the DE50 dose which is that dose which reduces 50% of the number of vomitings provoked by the injection of apomorphine hydrochloride.

[3] = neuroleptic activity, overall (4 tests of Table I); assay type: in vivo; conditions: summary of Table I
Method: as §2
a. The traction test which consists of suspending a mouse by his front paws from a metal wire stretched horizontally. In a time less than 5 seconds, the normal animal effected recovering by managing to bring one of the rear paws to the wire. The test was run 25 minutes after intraperitoneal administration of the test product to determine the DE50 dose at which 50% of the animals effected recovering in less than 5 seconds.
as §1
c. The cataleptic activity test using the technique of Boissier et al [Therapie, Vol. 18 (1963), p. 1257-1277] with a young rat having slightly twisted homolaterally paws and noting the intensity of catalepsy. The DE50 dose is that dose provoking catalepsy in 50% of the animals after administration of the product.
as §3

young rat = assay: cataleptic activity test; assay type: in vivo; conditions: ip, I.P., dose provoking catalepsy in 50% of the animals, read-out: DE50 Test of Cataleptic Activity
Text: c. […] The DE50 dose is that dose provoking catalepsy in 50% of the animals after administration of the product.

[4] = I.P., dogs, subcutaneous 0.1 mg/kg apomorphine hydrochloride, 50% reduction of vomitings

SMILES	LD50 at 48 h (acute toxicity (DL50))	ED50 (mouse [1])	ED50 (mouse [2])	ED50 (dogs; [4])	neuroleptic activity (in words) [3]	ED50 (young rat)	ED50 (dogs)
O=C(CCN1CCC(c2c[nH]c3ccccc23)CC1)c1ccc(F)cc1 [Example 8, hydrochloride]	600 mg/kg	2.7 mg/kg	2.5 mg/kg				
O=C(CCCN1CCC(c2c[nH]c3ccccc23)CC1)c1ccc(F)cc1 [Example 1, p-fluoro-ω-[4'-(3"-indolyl)-piperidino]-butyrophenone hydrochloride]	100 mg/kg	1.6 mg/kg	2.2 mg/kg	0.02 mg/kg	very interesting neuroleptic activity	8.5 mg/kg	
Cn1cc(C2CCN(CCCC(=O)c3ccc(F)cc3)CC2)c2ccccc21 [Example 2, p-fluoro-ω-[4'-(1"-methyl-3"-indolyl)-piperidino]-butyrophenone hydrochloride]	185 mg/kg	4.5 mg/kg	5.2 mg/kg			12 mg/kg	0.2 mg/kg
COc1ccc2c(C3CCN(CCCC(=O)c4ccc(F)cc4)CC3)c[nH]c2c1 [Example 3, p-fluoro-ω-[4'-(6"-methoxy-3"-indolyl)-piperidino]-butyrophenone hydrochloride]	190 mg/kg	0.9 mg/kg	1.2 mg/kg	0.01 mg/kg	very interesting neuroleptic activity	2 mg/kg	
O=C(CCCN1CCC(c2c[nH]c3ccccc23)CC1)c1ccc(Br)cc1 [Example 6, p-bromo-ω-[4'-(3"-indolyl)-piperidino]-butyrophenone hydrochloride]	300 mg/kg						
O=C(CCCN1CCC(c2c[nH]c3ccccc23)CC1)c1ccccc1 [Example 7, ω-[4'-(3'-indolyl)-piperidino]-butyrophenone hydrochloride]	300 mg/kg	4 mg/kg	7 mg/kg	0.06 mg/kg		11 mg/kg	
COc1ccc2[nH]cc(C3CCN(CCCC(=O)c4ccc(F)cc4)CC3)c2c1 [Example 4, p-fluoro-ω-[4'-(5"-methoxy-3"-indolyl)-piperidino]-butyrophenone hydrochloride]	300 mg/kg	0.2 mg/kg	1 mg/kg	< 0.3 mg/kg	very interesting neuroleptic activity	6 mg/kg	
COc1ccc2c(C3CCN(CCCC(=O)c4ccc(F)cc4)CC3)c(C)[nH]c2c1 [Example 5, p-fluoro-ω-[4'-(2"-methyl-6"-methoxy-3"-indolyl)-piperidino]butyrophenone]	600 mg/kg	0.3 mg/kg	3.8 mg/kg	0.0045 mg/kg	very interesting neuroleptic activity	3.5 mg/kg	
